Assay results as given in patent US20140220100A1, “VACCINE COMPOSITION FOR TRANSDERMAL ADMINISTRATION” (NITTO DENKO CORPORATION, priority 2013, published 2014).

test system: IFN-γ-producing cells (spleen cells co-cultured with antigen peptide); test: Immunity Induction Test 1 in mouse (liquid formulation for external use), ELISPOT; type: in vivo; conditions: summary of Tables 1, 2 and 4; transdermal HER2/neu E75 peptide vaccine composition
Experimental: A cellulose non-woven fabric (area 0.8 cm^2) was attached to a middle part of an adhesive tape for fixing to prepare a composite substrate. The non-woven fabric part of the composite substrate was immersed with 67 μL of the liquid formulation for external use. Thus a sample for immunity induction test was prepared.
The liquid formulations for external use prepared as above described were used to perform an immunity induction test using a model mouse for immunological evaluation. The immunity induction level was evaluated by ELISPOT method. Specifically, the hair of the back skin of a mouse was cut, and the mouse was kept in a period for recovering from the skin damage. Thereafter, each sample was administered to the back skin of the mouse for a predetermined period, and then removed. After keeping the mouse for a predetermined day, the level of the cellular immunity induction specific for the antigen was evaluated. On a predetermined day after the administration, the spleen of the mouse was excised to prepare a suspension of the spleen cells. Spleen cells (3×10^6 cells/well) and an antigen peptide (100 μM) were added together with a culture solution into a well of ELISPOT plate containing an immobilized anti-mouse IFN-γ […], and co-cultured at 37° C. in 5% CO2 for 20 hours. The spot number of IFN-γ-producing cells was evaluated by ELISPOT method (the number of the spot/3×10^6 cells). The dosage of the liquid formulation for external use was all 67 μL as described above, and the administration was performed once (24 hr/week), the spleen was excised 6 days after the administration.
The results of the immunity induction test, and the measurement results of TSLP level and transepidermal water loss are shown in Table 1.

SMILES | promotion of induction of cellular immunity by addition of a pharmacologically acceptable acid as second cellular immunity induction promoter
CCCCCCCCCC(=O)O [decanoic acid] | effective
CC(C)CCCCCCCCCCCCCCC(=O)O [isostearic acid] | effective
CC(O)C(=O)O (stereo not drawn) [lactic acid] | effective
CCCCCCCCCCCC(=O)O [lauric acid] | effective
O=C(O)/C=C\C(=O)O [maleic acid] | effective
O=C(O)CC(O)C(=O)O (stereo not drawn) [malic acid] | effective
CS(=O)(=O)O [methanesulfonic acid] | effective
CCCCCCCCCCCCCC(=O)O [myristic acid] | effective
CCCCCCCC/C=C\CCCCCCCC(=O)O [oleic acid] | effective
CCCCCCCCCCCCCCCC(=O)O [palmitic acid] | effective
O=C(O)c1ccccc1O [salicylic acid] | effective
CCCCCCCCCCCCCCCCCC(=O)O [stearic acid] | effective
